≈ marks a conversion by molar mass, not a printed value.
What was measured:
[1] = system: M. tuberculosis MDR (resistant to isoniazid and rifampicin); assay: microbe, parasite or virus in culture; format: cell-based; conditions: Mycobacterium tuberculosis, 504 h, read-out: MIC M. tb MDR
[2] = system: M. tuberculosis XDR (resistant to isoniazid, rifampicin, amikacin and moxifloxacin); assay: microbe, parasite or virus in culture; format: cell-based; conditions: Mycobacterium tuberculosis, 504 h, read-out: MIC M. tb XDR

## CC(C)c1ccc(OCc2cn(-c3cccc(OC[C@@]4(C)Cn5cc([N+](=O)[O-])nc5O4)c3)nn2)cc1 [IA38]
[1]
  MIC: 4 µg/mL (≈ 8.15 µM)
[2]
  MIC: 4 µg/mL (≈ 8.15 µM)

## C[C@]1(COc2ccccc2-n2cc(COc3ccc(OC(F)(F)F)cc3)nn2)Cn2cc([N+](=O)[O-])nc2O1 [IA39]
[1]
  MIC: 1 µg/mL (≈ 1.88 µM)
[2]
  MIC: 1 µg/mL (≈ 1.88 µM)

## C[C@]1(COc2ccccc2-n2cc(COc3ccc(F)cc3)nn2)Cn2cc([N+](=O)[O-])nc2O1 [IA40]
[1]
  MIC: 4 µg/mL (≈ 8.58 µM)
[2]
  MIC: 4 µg/mL (≈ 8.58 µM)

## C[C@]1(COc2ccccc2-n2cc(COc3ccc(C(F)(F)F)cc3)nn2)Cn2cc([N+](=O)[O-])nc2O1 [IA41]
[1]
  MIC: 2 µg/mL (≈ 3.87 µM)
[2]
  MIC: 2 µg/mL (≈ 3.87 µM)

## C[C@]1(COc2ccccc2-n2cc(COc3ccccc3F)nn2)Cn2cc([N+](=O)[O-])nc2O1 [IA42]
[1]
  MIC: 2 µg/mL (≈ 4.29 µM)
[2]
  MIC: 2 µg/mL (≈ 4.29 µM)

## C[C@]1(COc2ccc(-n3nnnc3-c3ccccc3)cc2)Cn2cc([N+](=O)[O-])nc2O1 [IB1, (R)-2-{4-[5-phenyl-1H-tetrazol-1-yl]phenoxymethyl}-2,3-dihydro-2-methyl-6-nitroimidazo[2,1-b]oxazole]
[1]
  MIC: 2 µg/mL (≈ 4.77 µM)
[2]
  MIC: 2 µg/mL (≈ 4.77 µM)

## C[C@]1(COc2ccc(-n3nnnc3-c3ccc(OC(F)(F)F)cc3)cc2)Cn2cc([N+](=O)[O-])nc2O1 [IB2, (R)-2-{4-[5-(4-trifluoromethoxyphenyl)-1H-tetrazol-1-yl]phenoxymethyl}-2,3-dihydro-2-methyl-6-nitroimidazo[2,1-b]oxazole]
[1]
  MIC: 2 µg/mL (≈ 3.97 µM)
[2]
  MIC: 2 µg/mL (≈ 3.97 µM)

## Cc1ccc(-c2nnnn2-c2ccc(OC[C@@]3(C)Cn4cc([N+](=O)[O-])nc4O3)cc2)cc1 [IB3, (R)-2-{4-[5-(4-methylphenyl)-1H-tetrazol-1-yl]phenoxymethyl}-2,3-dihydro-2-methyl-6-nitroimidazo[2,1-b]oxazole]
[1]
  MIC: 4 µg/mL (≈ 9.23 µM)
[2]
  MIC: 4 µg/mL (≈ 9.23 µM)

## C[C@]1(COc2ccc(-n3nnnc3-c3ccc(F)cc3)cc2)Cn2cc([N+](=O)[O-])nc2O1 [IB4, (R)-2-{4-[5-(4-fluorophenyl)-1H-tetrazol-1-yl]phenoxymethyl}-2,3-dihydro-2-methyl-6-nitroimidazo[2,1-b]oxazole]
[1]
  MIC: 4 µg/mL (≈ 9.15 µM)
[2]
  MIC: 4 µg/mL (≈ 9.15 µM)

## C[C@]1(COc2ccc(-n3nnnc3-c3ccc(C(F)(F)F)cc3)cc2)Cn2cc([N+](=O)[O-])nc2O1 [IB5, (R)-2-{4-[5-(4-trifluoromethylphenyl)-1H-tetrazol-1-yl]phenoxymethyl}-2,3-dihydro-2-methyl-6-nitroimidazo[2,1-b]oxazole]
[1]
  MIC: 1 µg/mL (≈ 2.05 µM)
[2]
  MIC: 1 µg/mL (≈ 2.05 µM)

## CCc1ccc(-c2nnnn2-c2ccc(OC[C@@]3(C)Cn4cc([N+](=O)[O-])nc4O3)cc2)cc1 [IB6, (R)-2-{4-[5-(4-ethylphenyl)-1H-tetrazol-1-yl]phenoxymethyl}-2,3-dihydro-2-methyl-6-nitroimidazo[2,1-b]oxazole]
[1]
  MIC: 2 µg/mL (≈ 4.47 µM)
[2]
  MIC: 2 µg/mL (≈ 4.47 µM)

## C[C@]1(COc2ccc(-n3nnnc3Oc3ccc(F)cc3)cc2)Cn2cc([N+](=O)[O-])nc2O1 [IB7, (R)-2-{4-[5-(4-fluorophenoxy)-1H-tetrazol-1-yl]phenoxymethyl}-2,3-dihydro-2-methyl-6-nitroimidazo[2,1-b]oxazole]
[1]
  MIC: 2 µg/mL (≈ 4.41 µM)
[2]
  MIC: 2 µg/mL (≈ 4.41 µM)

## C[C@]1(COc2ccc(-n3nnnc3Oc3ccc(C(F)(F)F)cc3)cc2)Cn2cc([N+](=O)[O-])nc2O1 [IB8, (R)-2-{4-[5-(4-trifluoromethylphenoxy)-1H-tetrazol-1-yl]phenoxymethyl}-2,3-dihydro-2-methyl-6-nitroimidazo[2,1-b]oxazole]
[1]
  MIC: 4 µg/mL (≈ 7.95 µM)
[2]
  MIC: 4 µg/mL (≈ 7.95 µM)

## Cc1ccc(Oc2nnnn2-c2ccc(OC[C@@]3(C)Cn4cc([N+](=O)[O-])nc4O3)cc2)cc1 [IB9, (R)-2-{4-[5-(4-methylphenoxy)-1H-tetrazol-1-yl]phenoxymethyl}-2,3-dihydro-2-methyl-6-nitroimidazo[2,1-b]oxazole]
[1]
  MIC: 4 µg/mL (≈ 8.9 µM)
[2]
  MIC: 4 µg/mL (≈ 8.9 µM)

## C[C@]1(COc2ccc(-n3nnnc3Oc3ccc(OC(F)(F)F)cc3)cc2)Cn2cc([N+](=O)[O-])nc2O1 [IB10, (R)-2-{4-[5-(4-trifluoromethoxyphenoxy)-1H-tetrazol-1-yl]phenoxymethyl}-2,3-dihydro-2-methyl-6-nitroimidazo[2,1-b]oxazole]
[1]
  MIC: 1 µg/mL (≈ 1.93 µM)
[2]
  MIC: 1 µg/mL (≈ 1.93 µM)

## C[C@]1(COc2ccc(-c3cc(-c4ccccc4)on3)cc2)Cn2cc([N+](=O)[O-])nc2O1 [IC1, (R)-2-{4-[5-phenylisoxazol-3-yl]phenoxymethyl}-2,3-dihydro-2-methyl-6-nitroimidazo[2,1-b]oxazole]
[1]
  MIC: 0.12 µg/mL (≈ 0.287 µM)
[2]
  MIC: 0.12 µg/mL (≈ 0.287 µM)

## CCc1ccc(-c2cc(-c3ccc(OC[C@@]4(C)Cn5cc([N+](=O)[O-])nc5O4)cc3)no2)cc1 [IC2, (R)-2-{4-[5-(4-ethylphenyl)isoxazol-3-yl]phenoxymethyl}-2,3-dihydro-2-methyl-6-nitroimidazo[2,1-b]oxazole]
[1]
  MIC: 2 µg/mL (≈ 4.48 µM)
[2]
  MIC: 2 µg/mL (≈ 4.48 µM)

## C[C@]1(COc2ccc(-c3cc(-c4ccc(F)cc4F)on3)cc2)Cn2cc([N+](=O)[O-])nc2O1 [IC3, (R)-2-{4-[5-(2,4-difluorophenyl)isoxazol-3-yl]phenoxymethyl}-2,3-dihydro-2-methyl-6-nitroimidazo[2,1-b]oxazole]
[1]
  MIC: 0.25 µg/mL (≈ 0.55 µM)
[2]
  MIC: 0.25 µg/mL (≈ 0.55 µM)

## C[C@]1(COc2ccc(-c3cc(-c4ccccc4F)on3)cc2)Cn2cc([N+](=O)[O-])nc2O1 [IC4, (R)-2-{4-[5-(2-fluorophenyl)isoxazol-3-yl]phenoxymethyl}-2,3-dihydro-2-methyl-6-nitroimidazo[2,1-b]oxazole]
[1]
  MIC: 2 µg/mL (≈ 4.58 µM)
[2]
  MIC: 2 µg/mL (≈ 4.58 µM)

## C[C@]1(COc2ccc(-c3cc(-c4ccc(C(F)(F)F)cc4)on3)cc2)Cn2cc([N+](=O)[O-])nc2O1 [IC5, (R)-2-{4-[5-(4-trifluoromethylphenyl)isoxazol-3-yl]phenoxymethyl}-2,3-dihydro-2-methyl-6-nitroimidazo[2,1-b]oxazole]
[1]
  MIC: 1 µg/mL (≈ 2.06 µM)
[2]
  MIC: 1 µg/mL (≈ 2.06 µM)

## Cc1ccc(-c2cc(-c3ccc(OC[C@@]4(C)Cn5cc([N+](=O)[O-])nc5O4)cc3)no2)cc1 [IC6, (R)-2-{4-[5-(4-methylphenyl)isoxazol-3-yl]phenoxymethyl}-2,3-dihydro-2-methyl-6-nitroimidazo[2,1-b]oxazole]
[1]
  MIC: 1 µg/mL (≈ 2.31 µM)
[2]
  MIC: 1 µg/mL (≈ 2.31 µM)

## COc1ccc(-c2cc(-c3ccc(OC[C@@]4(C)Cn5cc([N+](=O)[O-])nc5O4)cc3)no2)cc1 [IC7, (R)-2-{4-[5-(4-methoxyphenyl)isoxazol-3-yl]phenoxymethyl}-2,3-dihydro-2-methyl-6-nitroimidazo[2,1-b]oxazole]
[1]
  MIC: 1 µg/mL (≈ 2.23 µM)
[2]
  MIC: 1 µg/mL (≈ 2.23 µM)

## C[C@]1(COc2ccc(-c3cc(-c4cccc(F)c4)on3)cc2)Cn2cc([N+](=O)[O-])nc2O1 [IC8, (R)-2-{4-[5-(3-fluorophenyl)isoxazol-3-yl]phenoxymethyl}-2,3-dihydro-2-methyl-6-nitroimidazo[2,1-b]oxazole]
[1]
  MIC: 2 µg/mL (≈ 4.58 µM)
[2]
  MIC: 2 µg/mL (≈ 4.58 µM)

## C[C@]1(COc2ccc(-c3cc(-c4ccccn4)on3)cc2)Cn2cc([N+](=O)[O-])nc2O1 [IC9, (R)-2-{4-[5-(pyridin-2-yl)isoxazol-3-yl]phenoxymethyl}-2,3-dihydro-2-methyl-6-nitroimidazo[2,1-b]oxazole]
[1]
  MIC: 2 µg/mL (≈ 4.77 µM)
[2]
  MIC: 2 µg/mL (≈ 4.77 µM)

## C[C@]1(COc2ccc(-c3cc(-c4ccc(OC(F)(F)F)cc4)on3)cc2)Cn2cc([N+](=O)[O-])nc2O1 [IC10, (R)-2-{4-[5-(4-trifluoromethoxyphenyl)isoxazol-3-yl]phenoxymethyl}-2,3-dihydro-2-methyl-6-nitroimidazo[2,1-b]oxazole]
[1]
  MIC: 0.5 µg/mL (≈ 0.995 µM)
[2]
  MIC: 0.5 µg/mL (≈ 0.995 µM)
